Source: ChEMBL document CHEMBL5649167, “The SUV4-20 inhibitor A-196 verifies a role for epigenetics in genomic integrity” (Nat Chem Biol, 2017)
pIC50, pKi: −log10 of the molar value.

Tests used:
[1] = target: Histone-lysine N-methyltransferase KMT5B (Homo sapiens, UniProt Q4FZB7); experiment: Inhibition of recombinant human 6His-(Tev)-G-SUV420H1 (69 to 335 residues) using Biotin-tagged H4K20me1 and [3H-SAM] as substrate incubated for 2 hrs by scintillation proximity assay
[2] = target: Histone-lysine N-methyltransferase KMT5C (Homo sapiens, UniProt Q86Y97); experiment: Inhibition of human SUV420H2 using Biotin-tagged H4K20me1 and [3H-SAM] as substrate incubated for 2 hrs by scintillation proximity assay
[3] = Inhibition of H4K20me1 in human U2OS cells incubated for 48 hrs by Western blotting analysis; assay type: functional, cell-based
[4] = Inhibition of H4K20me2 in human U2OS cells incubated for 48 hrs by Western blotting analysis; assay type: functional, cell-based
[5] = Inhibition of H4K20me3 in human U2OS cells incubated for 48 hrs by Western blotting analysis; assay type: functional, cell-based
[6] = Inhibition of H4K20me1 in human LNCaP cells incubated for 48 hrs by Western blotting analysis; assay type: functional, cell-based
[7] = Inhibition of H4K20me2 in human LNCaP cells incubated for 48 hrs by Western blotting analysis; assay type: functional, cell-based
[8] = Inhibition of H4K20me3 in human LNCaP cells incubated for 48 hrs by Western blotting analysis; assay type: functional, cell-based
[9] = Inhibition of H4K20me1 in human U2OS cells assessed as increase in methylation level incubated for 72 hrs by Hoechst staining based high content microscopy; assay type: functional, cell-based
[10] = Inhibition of H4K20me3 in human U2OS cells assessed as decrease in methylation level incubated for 72 hrs by Hoechst staining based high content microscopy; assay type: functional, cell-based
[11] = Inhibition of H4K20me1 in human PC-3 cells assessed as increase in methylation level incubated for 72 hrs by Hoechst staining based high content microscopy; assay type: functional, cell-based; details: PC-3, 72 h
[12] = Inhibition of H4K20me3 in human PC-3 cells assessed as decrease in methylation level incubated for 72 hrs by Hoechst staining based high content microscopy; assay type: functional, cell-based; details: PC-3, 72 h
[13] = test system: U2OS; experiment: Antiproliferative activity against human U2OS cells assessed as change in number of nuclei incubated for 72 hrs by Hoechst staining based high content microscopy; assay type: functional, cell-based
[14] = test system: PC-3; experiment: Antiproliferative activity against human PC-3 cells assessed as change in number of nuclei incubated for 72 hrs by Hoechst staining based high content microscopy; assay type: functional, cell-based; details: PC-3, 72 h
[15] = test system: HFF; experiment: Cytotoxicity against HFF cells assessed as cell viability at 1.5 to 100 uM incubated after 72 hrs; assay type: toxicity, cell-based; details: human, dose 1.5-100 µM
[16] = test system: HFF; experiment: Cytotoxicity against HFF cells assessed as cell viability upto 12.5 uM incubated for 48 hrs; assay type: toxicity, cell-based; details: human
[17] = test system: MEF; experiment: Antiproliferative activity against mouse MEF cells assessed as loss of pericentric H4K20me3 at 10 uM incubated for 3 days by immunofluorescence analysis relative to control; assay type: functional; details: time 3 day
[18] = test system: B-cell; experiment: Induction of DNA repair in mouse B cells assessed as inhibition in ability of splenic cells to switch from IgM to IgG1 at 1 uM incubated for 2 days in the presence of LPS by flow cytometry analysis (Rvb=9.59%); assay type: functional; details: 48 h, time 2 day
[19] = test system: B-cell; experiment: Induction of DNA repair in mouse B cells assessed as inhibition in ability of splenic cells to switch from IgM to IgG1 at 10 uM incubated for 2 days in the presence of LPS by flow cytometry analysis (Rvb=9.59%); assay type: functional; details: 48 h, time 2 day
[20] = test system: B-cell; experiment: Induction of DNA repair in mouse B cells assessed as inhibition in ability of splenic cells to switch from IgM to IgG3 at 1 uM incubated for 4 days in the presence of LPS by flow cytometry analysis (Rvb=5.71%); assay type: functional; details: 96 h, time 4 day
[21] = test system: B-cell; experiment: Induction of DNA repair in mouse B cells assessed as inhibition in ability of splenic cells to switch from IgM to IgG3 at 10 uM incubated for 4 days in the presence of LPS by flow cytometry analysis (Rvb=5.71%); assay type: functional; details: 96 h, time 4 day
[22] = test system: B-cell; experiment: Induction of DNA repair in mouse B cells assessed as inhibition in ability of splenic cells to switch from IgM to IgE at 1 uM incubated for 3 days in the presence of LPS plus IL-4 by flow cytometry analysis (Rvb=1.97%); assay type: functional; details: 72 h, time 3 day
[23] = test system: B-cell; experiment: Induction of DNA repair in mouse B cells assessed as inhibition in ability of splenic cells to switch from IgM to IgE at 10 uM incubated for 3 days in the presence of LPS plus IL-4 by flow cytometry analysis (Rvb=1.97%); assay type: functional; details: 72 h, time 3 day
[24] = target: L-type calcium channel (verapamil binding site) (Homo sapiens, UniProt O60840+Q01668+Q13698+Q13936); experiment: Inhibition of human L-type calcium channel verapamil binding site at 10 uM relative to control; assay type: protein assay
[25] = target: KV channel (voltage-gated potassium channel) (Homo sapiens, UniProt O43525+O43526+O95259+P16389+P17658+P22001+P22459+P22460+P48547+P51787+P56696+Q03721+Q09470+Q12809+Q14003+Q14721+Q16322+Q6PIU1+Q8NCM2+Q8TAE7+Q8TDN1+Q8TDN2+Q92953+Q96KK3+Q96L42+Q96PR1+Q96RP8+Q9BQ31+Q9H252+Q9H3M0+Q9NR82+Q9NS40+Q9NSA2+Q9NZV8+Q9UIX4+Q9UJ96+Q9UK17+Q9ULD8+Q9ULS6+Q9UQ05); experiment: Inhibition of human KV channel at 10 uM relative to control; assay type: protein assay
[26] = target: T1, Adenosine receptor A1 (Homo sapiens, UniProt P30542); experiment: Inhibition of human Adenosine receptor A1 assessed as inhibition constant
T1 sequence (P30542 whole entry): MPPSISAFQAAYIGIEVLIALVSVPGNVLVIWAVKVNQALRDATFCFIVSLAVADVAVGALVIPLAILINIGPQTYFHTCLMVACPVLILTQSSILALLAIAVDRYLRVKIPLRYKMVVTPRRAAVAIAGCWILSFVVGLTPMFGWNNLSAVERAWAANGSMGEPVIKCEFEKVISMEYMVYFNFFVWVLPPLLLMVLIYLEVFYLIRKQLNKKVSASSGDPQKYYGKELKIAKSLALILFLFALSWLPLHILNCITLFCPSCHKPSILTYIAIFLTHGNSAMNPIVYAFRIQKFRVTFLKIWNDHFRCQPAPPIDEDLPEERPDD

[27] = target: Adenosine receptor A2a (Homo sapiens, UniProt P29274); experiment: Inhibition of human Adenosine receptor A2a assessed as inhibition constant
[28] = Inhibition of human GABA-gated Cl- channel assessed as inhibition constant
[29] = target: T2, Adenosine receptor A3 (Homo sapiens, UniProt P0DMS8); experiment: Inhibition of human Adenosine receptor A3 assessed as inhibition constant
T2 sequence (P0DMS8 whole entry): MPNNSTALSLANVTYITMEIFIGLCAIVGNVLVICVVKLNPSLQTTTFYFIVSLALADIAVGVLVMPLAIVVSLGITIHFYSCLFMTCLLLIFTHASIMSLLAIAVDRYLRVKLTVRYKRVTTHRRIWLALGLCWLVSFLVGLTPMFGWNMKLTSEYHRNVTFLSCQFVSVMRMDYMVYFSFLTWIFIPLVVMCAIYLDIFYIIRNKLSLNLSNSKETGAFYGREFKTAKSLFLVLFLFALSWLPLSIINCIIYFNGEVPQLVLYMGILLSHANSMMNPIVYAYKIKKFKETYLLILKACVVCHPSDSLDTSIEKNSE

[30] = target: Kappa-type opioid receptor (Homo sapiens, UniProt P41145); experiment: Inhibition of human Kappa-type opioid receptor assessed as inhibition constant
[31] = target: T3, Substance-K receptor (Homo sapiens, UniProt P21452); experiment: Inhibition of human Substance-K receptor assessed as inhibition constant
T3 sequence (P21452 whole entry): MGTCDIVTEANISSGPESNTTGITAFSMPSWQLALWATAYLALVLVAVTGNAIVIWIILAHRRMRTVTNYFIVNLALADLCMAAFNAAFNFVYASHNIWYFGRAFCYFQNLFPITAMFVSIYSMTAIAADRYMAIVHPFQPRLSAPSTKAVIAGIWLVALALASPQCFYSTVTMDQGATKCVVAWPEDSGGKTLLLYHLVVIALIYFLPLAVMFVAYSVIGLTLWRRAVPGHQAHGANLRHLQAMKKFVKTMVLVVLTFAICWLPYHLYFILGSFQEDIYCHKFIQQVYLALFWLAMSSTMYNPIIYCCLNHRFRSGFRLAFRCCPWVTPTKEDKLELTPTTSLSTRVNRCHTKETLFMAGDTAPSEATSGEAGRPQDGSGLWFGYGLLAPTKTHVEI

[32] = target: Delta-type opioid receptor (Homo sapiens, UniProt P41143); experiment: Inhibition of human Delta-type opioid receptor assessed as inhibition constant
[33] = Inhibition of human 5-HT3 receptor expressed in HEK293T cells at 10 uM relative to control; details: HEK-293T

Histone-lysine N-methyltransferase KMT5B, sequence (Q4FZB7 whole entry, the tested form may be a part): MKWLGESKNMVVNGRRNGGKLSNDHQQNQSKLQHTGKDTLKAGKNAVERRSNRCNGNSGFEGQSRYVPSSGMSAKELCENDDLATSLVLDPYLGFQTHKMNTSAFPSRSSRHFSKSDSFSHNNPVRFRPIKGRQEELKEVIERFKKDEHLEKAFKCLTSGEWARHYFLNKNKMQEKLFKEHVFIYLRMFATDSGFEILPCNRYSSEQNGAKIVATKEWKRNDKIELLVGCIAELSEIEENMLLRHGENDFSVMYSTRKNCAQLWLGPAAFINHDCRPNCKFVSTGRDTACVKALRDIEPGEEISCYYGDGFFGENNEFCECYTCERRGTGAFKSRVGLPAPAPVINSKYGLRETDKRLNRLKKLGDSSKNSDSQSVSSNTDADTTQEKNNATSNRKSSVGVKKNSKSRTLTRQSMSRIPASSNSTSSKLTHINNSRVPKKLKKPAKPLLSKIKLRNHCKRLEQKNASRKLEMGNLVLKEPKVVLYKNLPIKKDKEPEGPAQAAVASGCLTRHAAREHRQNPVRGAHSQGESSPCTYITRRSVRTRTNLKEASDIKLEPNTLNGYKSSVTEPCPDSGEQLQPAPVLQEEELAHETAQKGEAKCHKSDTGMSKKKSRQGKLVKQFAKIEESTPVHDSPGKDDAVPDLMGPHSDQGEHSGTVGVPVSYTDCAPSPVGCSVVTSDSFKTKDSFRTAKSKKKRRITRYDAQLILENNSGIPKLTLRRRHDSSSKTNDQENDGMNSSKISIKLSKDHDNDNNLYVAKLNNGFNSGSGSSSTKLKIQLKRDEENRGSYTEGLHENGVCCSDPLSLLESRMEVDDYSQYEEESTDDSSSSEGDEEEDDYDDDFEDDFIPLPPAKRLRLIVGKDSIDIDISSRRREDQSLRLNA
Histone-lysine N-methyltransferase KMT5C, sequence (Q86Y97 whole entry): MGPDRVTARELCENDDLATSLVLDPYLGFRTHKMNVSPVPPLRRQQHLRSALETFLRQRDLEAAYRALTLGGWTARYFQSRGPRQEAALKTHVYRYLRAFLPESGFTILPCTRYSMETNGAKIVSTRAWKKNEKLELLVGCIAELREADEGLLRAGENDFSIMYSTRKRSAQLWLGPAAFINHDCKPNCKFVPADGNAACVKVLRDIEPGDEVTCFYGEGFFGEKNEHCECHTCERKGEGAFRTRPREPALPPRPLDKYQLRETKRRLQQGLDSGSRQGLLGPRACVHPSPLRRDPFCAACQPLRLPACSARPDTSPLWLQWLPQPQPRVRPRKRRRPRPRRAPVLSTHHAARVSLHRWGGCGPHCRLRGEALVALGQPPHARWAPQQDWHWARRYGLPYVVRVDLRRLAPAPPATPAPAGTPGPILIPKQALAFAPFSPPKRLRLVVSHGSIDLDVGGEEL
Delta-type opioid receptor, sequence (P41143 whole entry): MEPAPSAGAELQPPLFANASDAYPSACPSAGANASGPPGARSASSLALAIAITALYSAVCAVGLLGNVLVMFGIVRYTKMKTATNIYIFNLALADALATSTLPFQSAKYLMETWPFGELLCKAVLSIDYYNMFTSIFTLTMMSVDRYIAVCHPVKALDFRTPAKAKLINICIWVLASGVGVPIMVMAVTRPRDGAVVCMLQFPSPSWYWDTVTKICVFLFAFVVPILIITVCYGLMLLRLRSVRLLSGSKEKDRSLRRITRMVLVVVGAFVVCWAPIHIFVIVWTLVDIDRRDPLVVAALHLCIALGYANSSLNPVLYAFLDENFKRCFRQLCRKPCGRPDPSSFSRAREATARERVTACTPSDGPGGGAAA
Adenosine receptor A2a, sequence (P29274 whole entry): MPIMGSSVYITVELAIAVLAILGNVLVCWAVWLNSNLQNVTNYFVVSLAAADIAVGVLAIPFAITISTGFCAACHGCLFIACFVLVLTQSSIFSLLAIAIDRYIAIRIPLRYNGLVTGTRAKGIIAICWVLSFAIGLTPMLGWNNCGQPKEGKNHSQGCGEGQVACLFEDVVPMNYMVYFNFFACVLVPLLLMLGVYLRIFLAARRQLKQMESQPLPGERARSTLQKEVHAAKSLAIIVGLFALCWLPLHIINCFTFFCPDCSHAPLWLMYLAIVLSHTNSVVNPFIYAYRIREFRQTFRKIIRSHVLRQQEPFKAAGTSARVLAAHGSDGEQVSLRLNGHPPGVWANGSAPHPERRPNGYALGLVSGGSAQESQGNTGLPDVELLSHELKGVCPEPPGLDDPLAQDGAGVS
Kappa-type opioid receptor, sequence (P41145 whole entry): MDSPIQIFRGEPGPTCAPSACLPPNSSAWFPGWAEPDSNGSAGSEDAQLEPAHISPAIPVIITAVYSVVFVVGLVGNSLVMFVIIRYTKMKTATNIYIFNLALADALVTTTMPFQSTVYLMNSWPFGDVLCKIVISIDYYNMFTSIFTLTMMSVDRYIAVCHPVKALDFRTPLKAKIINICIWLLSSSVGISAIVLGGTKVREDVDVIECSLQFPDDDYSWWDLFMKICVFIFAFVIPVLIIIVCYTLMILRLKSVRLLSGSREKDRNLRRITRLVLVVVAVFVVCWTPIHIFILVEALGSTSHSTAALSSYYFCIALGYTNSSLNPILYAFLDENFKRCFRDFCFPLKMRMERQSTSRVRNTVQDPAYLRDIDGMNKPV

Compound: Clc1cc2c(NC3CCCC3)nnc(-c3ccncc3)c2cc1Cl
- pIC50 [1]: 7.60
- pIC50 [2]: 6.84
- pIC50 [3]: 6.13
- pIC50 [4]: 6.58
- pIC50 [5]: 6.43
- pIC50 [6]: 6.10
- pIC50 [7]: 6.29
- pIC50 [8]: 6.68
- pIC50 [9]: 5.72
- pIC50 [10]: 6.30
- pIC50 [11]: 6.16
- pIC50 [12]: 6.28
- pIC50 [13]: < 4.70
- pIC50 [14]: < 4.70
- Activity [15]: Non-Toxic
- Activity [16]: Non-Toxic
- Activity [17]: 97%
- inhibition at 1 µM [18]: 5.87%
- inhibition at 10 µM [19]: 3.68%
- inhibition at 1 µM [20]: 3.79%
- inhibition at 10 µM [21]: 3.85%
- inhibition at 1 µM [22]: 1.47%
- inhibition at 10 µM [23]: 0.73%
- inhibition at 10 µM [24]: -4%
- inhibition at 10 µM [25]: -18%
- pKi [26]: 7.68
- pKi [27]: 7.55
- pKi [28]: 5.74
- pKi [29]: 5.70
- pKi [30]: < 5.00
- pKi [31]: 5.39
- pKi [32]: 5.05
- inhibition at 10 µM [33]: 32%
